# ChEMBL document CHEMBL3885861, “Open TG-GATES”
# Species on record: Rattus norvegicus
# Experiment: Open TG-GATES - Regimen: Daily Repeat
# Format: toxicity, organism-based, Sprague-Dawley
# Design: regimen Daily Repeat, gender Male, age 6 weeks
# Settings: in vivo, po, route gavage; for APTT / Bas / Eos / Fbg / Hb / Ht / Lym / MCH / MCHC / MCV / Mono / Neu / PT / Plat / RBC / Ret / WBC: tissue Blood; for KIDNEY_L / KIDNEY_R / KIDNEY_TOTAL: tissue Kidney; for LIVER: tissue Liver; for ALP / ALT / AST / BUN / CRE / DBIL / GLC / IP / K / LDH / Na / PL / RALB / TBIL / TC / TG / TP / gamma-GTP: tissue Plasma
# [1] = 100 mg/kg, 72 h, dose level Middle, time 3 day
# [2] = 100 mg/kg, […], dose level Middle, time 7 day
# [3] = 100 mg/kg, […], dose level Middle, time 14 day
# [4] = 100 mg/kg, […], dose level Middle, time 28 day
# [5] = 300 mg/kg, 72 h, dose level High, time 3 day
# [6] = 300 mg/kg, […], dose level High, time 7 day
# [7] = 300 mg/kg, […], dose level High, time 14 day
# [8] = 300 mg/kg, […], dose level High, time 28 day
smiles,measurement,setting,value
Clc1ccccc1CN1CCc2sccc2C1 [TICLOPIDINE],TERMINAL_BW,[1],224.9 g
same,APTT,[1],21.3 s
same,Bas,[1],1%
same,Eos,[1],1%
same,Fbg,[1],224 mg/dL
same,Hb,[1],13.4 g/dL
same,Ht,[1],37.8%
same,Lym,[1],80.6%
same,MCH,[1],21.5 pg
same,MCHC,[1],35.5%
same,MCV,[1],60.4 fL
same,Mono,[1],2.6%
same,Neu,[1],14.6%
same,PT,[1],11.3 s
same,Plat,[1],125.6 x10_4/uL
same,RBC,[1],626.4 x10_4/ul
same,Ret,[1],5.6%
same,WBC,[1],100.7 x10_2/uL
same,KIDNEY_L,[1],1 g
same,KIDNEY_R,[1],1 g
same,KIDNEY_TOTAL,[1],1.9 g
same,LIVER,[1],11.8 g
same,ALP,[1],968 IU/L
same,ALT,[1],38.2 IU/L
same,AST,[1],65.8 IU/L
same,BUN,[1],15.4 mg/dL
same,CRE,[1],0.4 mg/dL
same,DBIL,[1],0.07 mg/dL
same,GLC,[1],195.6 mg/dL
same,IP,[1],7.3 mg/dL
same,K,[1],4 meq/L
same,LDH,[1],152.8 IU/L
same,Na,[1],142.2 meq/L
same,PL,[1],162.6 mg/dL
same,RALB,[1],3.3 g/dL
same,TBIL,[1],0.1 mg/dL
same,TC,[1],89.8 mg/dL
same,TG,[1],69.8 mg/dL
same,TP,[1],5.5 g/dL
same,gamma-GTP,[1],0.8 IU/L
same,TERMINAL_BW,[2],258 g
same,TERMINAL_BW,[3],306.1 g
same,TERMINAL_BW,[4],394.5 g
same,APTT,[2],22.3 s
same,Bas,[2],0.6%
same,Eos,[2],0.8%
same,Fbg,[2],227.4 mg/dL
same,Hb,[2],13.6 g/dL
same,Ht,[2],38.2%
same,MCH,[2],21.4 pg
same,MCHC,[2],35.5%
same,MCV,[2],60.4 fL
same,Mono,[2],2.6%
same,Neu,[2],13%
same,PT,[2],11.6 s
same,Plat,[2],123.7 x10_4/uL
same,RBC,[2],633.2 x10_4/ul
same,Ret,[2],5.4%
same,WBC,[2],117.5 x10_2/uL
same,APTT,[3],19.9 s
same,Bas,[3],0.8%
same,Eos,[3],0.8%
same,Fbg,[3],220.4 mg/dL
same,Hb,[3],14.5 g/dL
same,Ht,[3],40.6%
same,Lym,[3],80.6%
same,MCH,[3],21.3 pg
same,MCHC,[3],35.7%
same,MCV,[3],59.6 fL
same,Mono,[3],2.2%
same,Neu,[3],15.4%
same,PT,[3],11.8 s
same,Plat,[3],114.3 x10_4/uL
same,RBC,[3],681 x10_4/ul
same,Ret,[3],4.3%
same,WBC,[3],108.6 x10_2/uL
same,APTT,[4],18.7 s
same,Bas,[4],1%
same,Eos,[4],0.8%
same,Fbg,[4],219.8 mg/dL
same,Hb,[4],15.3 g/dL
same,Ht,[4],41.1%
same,Lym,[4],81.6%
same,MCH,[4],20 pg
same,MCHC,[4],37.4%
same,MCV,[4],53.4 fL
same,Mono,[4],2.2%
same,Neu,[4],13.6%
same,PT,[4],11.6 s
same,Plat,[4],114.7 x10_4/uL
same,RBC,[4],770 x10_4/ul
same,Ret,[4],3%
same,WBC,[4],136.4 x10_2/uL
same,KIDNEY_L,[2],1.2 g
same,KIDNEY_R,[2],1.2 g
same,KIDNEY_TOTAL,[2],2.3 g
same,KIDNEY_L,[3],1.2 g
same,KIDNEY_R,[3],1.2 g
same,KIDNEY_TOTAL,[3],2.5 g
same,KIDNEY_L,[4],1.5 g
same,KIDNEY_R,[4],1.5 g
same,KIDNEY_TOTAL,[4],3 g
same,LIVER,[2],13 g
same,LIVER,[3],14.1 g
same,LIVER,[4],17.9 g
same,ALP,[2],969.2 IU/L
same,ALT,[2],39.4 IU/L
same,AST,[2],73.2 IU/L
same,BUN,[2],14.8 mg/dL
same,CRE,[2],0.4 mg/dL
same,DBIL,[2],0.068 mg/dL
same,GLC,[2],192.6 mg/dL
same,IP,[2],7.2 mg/dL
same,K,[2],3.9 meq/L
same,LDH,[2],144.8 IU/L
same,Na,[2],142.4 meq/L
same,PL,[2],145.4 mg/dL
same,RALB,[2],3.5 g/dL
same,TBIL,[2],0.1 mg/dL
same,TC,[2],74.8 mg/dL
same,TG,[2],68.2 mg/dL
same,TP,[2],5.7 g/dL
same,gamma-GTP,[2],0.8 IU/L
same,ALP,[3],792.6 IU/L
same,ALT,[3],36.6 IU/L
same,AST,[3],68.8 IU/L
same,BUN,[3],15.8 mg/dL
same,CRE,[3],0.4 mg/dL
same,DBIL,[3],0.06 mg/dL
same,GLC,[3],205 mg/dL
same,IP,[3],7.5 mg/dL
same,K,[3],3.8 meq/L
same,LDH,[3],161.8 IU/L
same,Na,[3],143.4 meq/L
same,PL,[3],152.2 mg/dL
same,RALB,[3],3.4 g/dL
same,TBIL,[3],0.098 mg/dL
same,TC,[3],78.8 mg/dL
same,TG,[3],94.2 mg/dL
same,TP,[3],5.7 g/dL
same,gamma-GTP,[3],1 IU/L
same,ALP,[4],625.8 IU/L
same,ALT,[4],44 IU/L
same,AST,[4],71.6 IU/L
same,BUN,[4],17.6 mg/dL
same,CRE,[4],0.5 mg/dL
same,DBIL,[4],0.072 mg/dL
same,GLC,[4],202.8 mg/dL
same,IP,[4],7.5 mg/dL
same,K,[4],3.8 meq/L
same,LDH,[4],152.4 IU/L
same,Na,[4],142.2 meq/L
same,PL,[4],154.8 mg/dL
same,RALB,[4],3.6 g/dL
same,TBIL,[4],0.1 mg/dL
same,TC,[4],76.8 mg/dL
same,TG,[4],82.8 mg/dL
same,TP,[4],6.3 g/dL
same,gamma-GTP,[4],0.8 IU/L
same,TERMINAL_BW,[5],211.5 g
same,APTT,[5],25.4 s
same,Bas,[5],0.6%
same,Eos,[5],0.8%
same,Fbg,[5],212.6 mg/dL
same,Hb,[5],13.7 g/dL
same,Ht,[5],38.5%
same,Lym,[5],84%
same,MCH,[5],21.4 pg
same,MCHC,[5],35.5%
same,MCV,[5],60.1 fL
same,Mono,[5],2.6%
same,Neu,[5],11.2%
same,PT,[5],12.4 s
same,Plat,[5],149.4 x10_4/uL
same,RBC,[5],640.4 x10_4/ul
same,Ret,[5],3.5%
same,WBC,[5],84 x10_2/uL
same,KIDNEY_L,[5],1.1 g
same,KIDNEY_R,[5],1 g
same,KIDNEY_TOTAL,[5],2.1 g
same,LIVER,[5],13 g
same,ALP,[5],1140 IU/L
same,ALT,[5],40.2 IU/L
same,AST,[5],68.6 IU/L
same,BUN,[5],13.8 mg/dL
same,CRE,[5],0.4 mg/dL
same,DBIL,[5],0.084 mg/dL
same,GLC,[5],175.4 mg/dL
same,IP,[5],7 mg/dL
same,K,[5],4 meq/L
same,LDH,[5],134.6 IU/L
same,Na,[5],142 meq/L
same,PL,[5],163.2 mg/dL
same,RALB,[5],3.2 g/dL
same,TBIL,[5],0.1 mg/dL
same,TC,[5],93 mg/dL
same,TG,[5],55.6 mg/dL
same,TP,[5],5.2 g/dL
same,gamma-GTP,[5],1.6 IU/L
same,TERMINAL_BW,[6],243.3 g
same,TERMINAL_BW,[7],287.4 g
same,TERMINAL_BW,[8],349.5 g
same,APTT,[6],25.4 s
same,Bas,[6],0.4%
same,Eos,[6],1%
same,Fbg,[6],249.2 mg/dL
same,Hb,[6],13.3 g/dL
same,Ht,[6],37.1%
same,Lym,[6],73.6%
same,MCH,[6],20.6 pg
same,MCHC,[6],35.8%
same,MCV,[6],57.3 fL
same,Mono,[6],3%
same,Neu,[6],20.8%
same,PT,[6],12.5 s
same,Plat,[6],141.7 x10_4/uL
same,RBC,[6],646.4 x10_4/ul
same,Ret,[6],4.9%
same,WBC,[6],116.7 x10_2/uL
same,APTT,[7],27.3 s
same,Bas,[7],0.6%
same,Eos,[7],1%
same,Fbg,[7],229.6 mg/dL
same,Hb,[7],14.1 g/dL
same,Ht,[7],39.4%
same,Lym,[7],82.4%
same,MCH,[7],20.9 pg
same,MCHC,[7],35.9%
same,MCV,[7],58.1 fL
same,Mono,[7],2.2%
same,Neu,[7],12.8%
same,PT,[7],12.5 s
same,Plat,[7],123 x10_4/uL
same,RBC,[7],679 x10_4/ul
same,Ret,[7],4.4%
same,WBC,[7],118.3 x10_2/uL
same,APTT,[8],22.4 s
same,Bas,[8],0.8%
same,Eos,[8],1.4%
same,Fbg,[8],261.8 mg/dL
same,Hb,[8],14.8 g/dL
same,Ht,[8],39.8%
same,Lym,[8],77.4%
same,MCH,[8],19.7 pg
same,MCHC,[8],37.1%
same,MCV,[8],53.3 fL
same,Mono,[8],2.4%
same,Neu,[8],17.6%
same,PT,[8],11.8 s
same,Plat,[8],108.6 x10_4/uL
same,RBC,[8],747.8 x10_4/ul
same,Ret,[8],3.2%
same,WBC,[8],125.4 x10_2/uL
same,KIDNEY_L,[6],1.1 g
same,KIDNEY_R,[6],1.1 g
same,KIDNEY_TOTAL,[6],2.2 g
same,KIDNEY_L,[7],1.3 g
same,KIDNEY_R,[7],1.3 g
same,KIDNEY_TOTAL,[7],2.6 g
same,KIDNEY_L,[8],1.5 g
same,KIDNEY_R,[8],1.5 g
same,KIDNEY_TOTAL,[8],3.1 g
same,LIVER,[6],14.1 g
same,LIVER,[7],16.6 g
same,LIVER,[8],20 g
same,ALP,[6],768.8 IU/L
same,ALT,[6],49.8 IU/L
same,AST,[6],78 IU/L
same,BUN,[6],15.8 mg/dL
same,CRE,[6],0.4 mg/dL
same,DBIL,[6],0.084 mg/dL
same,GLC,[6],172.6 mg/dL
same,IP,[6],7.3 mg/dL
same,K,[6],4.1 meq/L
same,LDH,[6],186 IU/L
same,Na,[6],142.4 meq/L
same,PL,[6],222.6 mg/dL
same,RALB,[6],3.5 g/dL
same,TBIL,[6],0.1 mg/dL
same,TC,[6],126.8 mg/dL
same,TG,[6],67.4 mg/dL
same,TP,[6],6 g/dL
same,gamma-GTP,[6],1.8 IU/L
same,ALP,[7],721.2 IU/L
same,ALT,[7],35.2 IU/L
same,AST,[7],62.4 IU/L
same,BUN,[7],15.2 mg/dL
same,CRE,[7],0.4 mg/dL
same,DBIL,[7],0.08 mg/dL
same,GLC,[7],201.4 mg/dL
same,IP,[7],8.4 mg/dL
same,K,[7],3.9 meq/L
same,LDH,[7],141 IU/L
same,Na,[7],142.2 meq/L
same,PL,[7],182.8 mg/dL
same,RALB,[7],3.4 g/dL
same,TBIL,[7],0.1 mg/dL
same,TC,[7],99.2 mg/dL
same,TG,[7],53.6 mg/dL
same,TP,[7],6 g/dL
same,gamma-GTP,[7],2.4 IU/L
same,ALP,[8],578.4 IU/L
same,ALT,[8],47 IU/L
same,AST,[8],67.6 IU/L
same,BUN,[8],16.8 mg/dL
same,CRE,[8],0.5 mg/dL
same,DBIL,[8],0.086 mg/dL
same,GLC,[8],197 mg/dL
same,IP,[8],7.9 mg/dL
same,K,[8],4 meq/L
same,LDH,[8],196.6 IU/L
same,Na,[8],141.6 meq/L
same,PL,[8],206 mg/dL
same,RALB,[8],3.7 g/dL
same,TBIL,[8],0.1 mg/dL
same,TC,[8],116.4 mg/dL
same,TG,[8],62.4 mg/dL
same,TP,[8],6.5 g/dL
same,gamma-GTP,[8],2.6 IU/L
